Target: T1, Met kinase domain (GST fusion protein) (Homo sapiens, UniProt P08581)
T1 construct: Purified GST fusion protein containing the Met kinase domain
Assay: Met transphosphorylation assay (ELISA, poly(glu-tyr) substrate);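 further: Cell-free ELISA with plate-bound poly(Glu:Tyr 4:1) phosphorylated by GST-fused Met kinase domain plus ATP and Mn2+, phosphotyrosine detected by anti-phosphotyrosine antibody with HRP and ABTS read-out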
Type: biochemical
Conditions: read-out: Met IC50
Procedure: General procedure is as follows: a compound is introduced to cells expressing the test kinase, either naturally or recombinantly, for a selected period of time after which, if the test kinase is a receptor, a ligand known to activate the receptor is added. The cells are lysed and the lysate is transferred to the wells of an ELISA plate previously coated with a specific antibody recognizing the substrate of the enzymatic phosphorylation reaction. Non-substrate components of the cell lysate are washed away and the amount of phosphorylation on the substrate is detected with an antibody specifically recognizing phosphotyrosine compared with control cells that were not contacted with a test compound.
Met Transphosphorylation Assay
This assay is used to measure phosphotyrosine levels on a poly(glutamic acid:tyrosine, 4:1) substrate as a means for identifying agonists/antagonists of met transphosphorylation of the substrate.
PBS, Gibco Catalog # 450-1300EB • 4. 50 mM HEPES • 5. […] Purified GST fusion protein containing the Met kinase domain, SUGEN, Inc. • 7. TBST Buffer. • 8. 10% aqueous (MilliQue H2O) DMSO. • 9. […] 2× Kinase Dilution Buffer: for 100 mL, mix 10 mL 1M HEPESat pH 7.5 with 0.4 mL 5% BSA/PBS, 0.2 mL 0.1 M sodium orthovanadate and 1 mL 5M sodium chloride in 88.4 mL dH2O. • 11. 4× ATP Reaction Mixture: for 10 mL, mix 0.4 mL 1 M manganese chloride and 0.02 mL 0.1 M ATP in 9.56 mL dH2O. • 12. 4× Negative Controls Mixture: for 10 mL, mix 0.4 mL 1 M manganese chloride in 9.6 mL dH2O. • 13. […] 500 mM EDTA. • 15. Antibody Dilution Buffer: for 100 mL, mix 10 mL 5% BSA/PBS, 0.5 mL 5% Carnation® Instant Milk in PBS and 0.1 mL 0.1 M sodium orthovanadate in 88.4 mL TBST. • 16. Rabbit polyclonal antophosphotyrosine antibody, SUGEN, Inc. • 17. Goat anti-rabbit horseradish peroxidase conjugated antibody, Biosource, Inc. • 18. ABTS Solution: for 1 L, mix 19.21 g citric acid, 35.49 g Na2HPO4 and 500 mg ABTS with sufficient dH2O to make 1 L. • 19. ABTS/H2O2: mix 15 mL ABST solution with 2μL H2O2 five minutes before use. • 20. 0.2 M HCl Procedure: • 1. Coat ELISA plates with 2 μg Poly(Glu-Tyr) in 100 μL PBS, hold-overnight at 4° C. • 2. Block plate with 150 μL of 5% BSA/PBS for 60 min. • 3. Wash plate twice with PBS then once with 50 mM Hepes buffer pH 7.4. • 4. Add 50 μl of the diluted kinase to all wells. (Purified kinase is diluted with Kinase Dilution Buffer. Final concentration should be 10 ng/well.) • 5. Add 25 μL of the test compound (in 4% DMSO) or DMSO alone (4% in dH2O) for controls to plate. • 6. Incubate the kinase/compound mixture for 15 minutes. • 7. Add 25 μL of 40 mM MnCl2 to the negative control wells. • 8. Add 25 μL ATP/MnCl2 mixture to the all other wells (except the negative controls). Incubate for 5 min. • 9. Add 25 μL 500 mM EDTA to stop reaction. • 10. Wash plate 3× with TBST. • 11. Add 100 μL rabbit polyclonal anti-Ptyr diluted 1:10,000 in Antibody Dilution Buffer to each well. Incubate, with shaking, at room temperature for one hour. • 12. Wash plate 3× with TBST. • 13. […] Add 100 μL per well and incubate at room temperature, with shaking, for one hour. • 14. Wash plate 1× with PBS. • 15. Add 100 μl of ABTS/H2O2 solution to each well. • 16. If necessary, stop the development reaction with the addition of 100 μl of 0.2M HCl per well. • 17.

T1 sequence (P08581 1078-1345 limits assumed): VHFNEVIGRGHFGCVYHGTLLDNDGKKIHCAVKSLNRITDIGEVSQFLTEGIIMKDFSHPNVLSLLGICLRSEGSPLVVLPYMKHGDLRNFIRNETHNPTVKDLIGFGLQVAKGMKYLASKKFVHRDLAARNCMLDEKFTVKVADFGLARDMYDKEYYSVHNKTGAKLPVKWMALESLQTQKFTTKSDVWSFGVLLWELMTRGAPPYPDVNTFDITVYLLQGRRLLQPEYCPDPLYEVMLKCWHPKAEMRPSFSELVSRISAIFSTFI

Row | IC50 | SMILES
1 | 1.45 µM | CC(=O)N1CCN(C(=O)c2ccc(-c3cnc(N)c(OCc4c(F)cccc4Cl)c3)cc2)CC1 [Example I-147, 1-(4-{4-(6-Amino-5-(2-chloro-6-fluoro-benzyloxy)-pyridin-3-yl]-benzoyl}-piperazin-1-yl)-ethanone]
2 | 6.4 µM | Nc1ncc(-c2ccc(C(=O)NCCN3CCOCC3)cc2)cc1OCc1c(F)cccc1Cl [Example I-148, 4-[6-Amino-5-(2-chloro-6-fluoro-benzyloxy)-pyridin-3-yl]-N-(2-morpholin-4-yl-ethyl)-benzamide]
3 | 5.6 µM | Nc1ncc(-c2ccc(C(=O)NCCCN3CCOCC3)cc2)cc1OCc1c(F)cccc1Cl [Example I-149, 4-[6-Amino-5-(2-chloro-6-fluoro-benzyloxy)-pyridin-3-yl]-N-(3-morpholin-4-yl-propyl)-benzamide]
4 | 1.44 µM | Nc1ncc(-c2ccc(C(=O)N3CC[C@H](N)C3)cc2)cc1OCc1ccccc1Cl [Example I-154, {4-[6-Amino-5-(2-chloro-benzyloxy)-pyridin-3-yl]-phenyl}-[(3S)-3-amino-pyrrolidin-1-yl]-methanone]
5 | 2.1 µM | CN1CCN(C(=O)c2ccc(-c3cnc(N)c(OCc4ccccc4Cl)c3)cc2)CC1 [Example I-156, {4-[6-Amino-5-(2-chloro-benzyloxy)-pyridin-3-yl]-phenyl}-(4-methyl-piperazin-1-yl)-methanone]
6 | 3.8 µM | CC(=O)N1CCN(C(=O)c2ccc(-c3cnc(N)c(OCc4ccccc4Cl)c3)cc2)CC1 [Example I-157, 1-(4-{4-[6-Amino-5-(2-chloro-benzyloxy)-pyridin-3-yl]-benzoyl}-piperazin-1-yl)-ethanone]
7 | 8.9 µM | Nc1ncc(-c2ccc(C(=O)NCCN3CCOCC3)cc2)cc1OCc1ccccc1Cl [Example I-158, 4-[6-Amino-5-(2-chloro-benzyloxy)-pyridin-3-yl]-N-(2-morpholin-4-yl-ethyl)-benzamide]
8 | 2.05 µM | N#Cc1ccccc1COc1cc(-c2ccc(C(=O)N3CC[C@H](N)C3)cc2)cnc1N [Example I-164]
9 | 3.2 µM | CN1CCN(C(=O)c2ccc(-c3cnc(N)c(OCc4ccccc4C#N)c3)cc2)CC1 [Example I-166, 2-{2-Amino-5-[4-(4-methyl-piperazine-1-carbonyl)-phenyl]-pyridin-3-yloxymethyl}-benzonitrile]
10 | 5.7 µM | CC(=O)N1CCN(C(=O)c2ccc(-c3cnc(N)c(OCc4ccccc4C#N)c3)cc2)CC1 [Example I-167, 2-{5-[4-(4-Acetyl-piperazine-1-carbonyl)-phenyl]-2-amino-pyridin-3-yloxymethyl}-benzonitrile]
11 | 8.6 µM | N#Cc1ccccc1COc1cc(-c2ccc(C(=O)NCCN3CCOCC3)cc2)cnc1N [Example I-169, 4-[6-Amino-5-(2-cyano-benzyloxy)-pyridin-3-yl]-N-(2-morpholin-4-yl-ethyl)-benzamide]

Row | SMILES | IC50
12 | CN(C)[C@H]1CCN(C(=O)c2ccc(-c3cnc(N)c(OCc4ccccc4Cl)c3)cc2)C1 [Example I-153, {4-[6-Amino-5-(2-chloro-benzyloxy)-pyridin-3-yl]-phenyl}-[(3S)-3-dimethylamino-pyrrolidin-1-yl]-methanone] | 12.7 µM
13 | Nc1ncc(-c2ccc(C(=O)NCCCN3CCOCC3)cc2)cc1OCc1ccccc1Cl [Example I-159, 4-[6-Amino-5-(2-chloro-benzyloxy)-pyridin-3-yl]-N-(3-morpholin-4-yl-propyl)-benzamide] | 4.5 µM
14 | CN(C)[C@H]1CCN(C(=O)c2ccc(-c3cnc(N)c(OCc4ccccc4C#N)c3)cc2)C1 [Example I-163, 2-{2-Amino-5-[4-((3S)-3-dimethylamino-pyrrolidine-1-carbonyl)-phenyl]-pyridin-3-yloxymethyl}-benzonitrile] | > 20 µM
15 | N#Cc1ccccc1COc1cc(-c2ccc(C(=O)NCCCN3CCOCC3)cc2)cnc1N [Example I-170, 4-[6-Amino-5-(2-cyano-benzyloxy)-pyridin-3-yl]-N-(3-morpholin-4-yl-propyl)-benzamide] | 17.3 µM

— patent publication US20050009840A1 (SUGEN, INC., priority 2003, published 2005)
